# Laboratory results reported in patent publication US20110053971A1, “NALMEFENE DI-ESTER PRODRUGS” (JANSSEN PHARMACEUTICA NV, priority 2008, published 2011).
# Experiment: In vivo PK studies in dog (oral administration): plasma levels of nalmefene
# Conditions: oral administration of nalmefene itself, Example C.2
# Protocol: Doses at 10 mg/kg or 20 mg/kg body weight of a compound of formula (I) or of nalmefene itself in a solution of 20% HP-β-CD (hydroxypropyl-β-cyclodextrines) were used and orally administered to dogs.
# Blood samples were taken over a period of 192 hours after oral administration. Blood samples were processed to obtain plasma. Plasma samples were analysed individually for nalmefene by means of a qualified LC-MS/MS-method.
compound,measurement,value
"C=C1CC[C@@]2(O)[C@H]3Cc4ccc(O)c5c4[C@@]2(CCN3CC2CC2)[C@H]1O5 [nalmefene, 17-cyclopropylmethyl-4,5α-epoxy-6-methylenemorphinan-3,14-diol]",time for which plasma levels of nalmefene can be measured after oral administration (in words),a few hours
